Measurements taken from the kinase profiling compilation of Christmann-Franck et al. (2016).

Experiments:
Assay in all cases: KINOMEscan competition binding
Conditions in all cases: compound 10.0 µM
[1] = target: TSSK1B (human) (UniProt Q9BXA7)
[2] = target: DMPK (human) (UniProt Q09013)
[3] = target: NTRK3 (human) (UniProt Q16288)
[4] = target: ACVR2A (human) (UniProt P27037)
[5] = target: MARK2 (human) (UniProt Q7KZI7)
[6] = target: MYO3B (human) (UniProt Q8WXR4)
[7] = target: MAP2K2 (human) (UniProt P36507)
[8] = target: NTRK1 (human) (UniProt P04629)
[9] = target: CAMK1G (human) (UniProt Q96NX5)
[10] = target: DYRK1B (human) (UniProt Q9Y463)
[11] = target: AURKB (human) (UniProt Q96GD4)
[12] = target: AKT1 (human) (UniProt P31749)
[13] = target: PTK2 (human) (UniProt Q05397)
[14] = target: BLK (human) (UniProt P51451)
[15] = target: AAK1 (human) (UniProt Q2M2I8)
[16] = target: FYN (human) (UniProt P06241)
[17] = target: CLK2 (human) (UniProt P49760)
[18] = target: EPHA4 (human) (UniProt P54764)
[19] = target: ABL2 (human) (UniProt P42684)
[20] = target: CSNK1E (human) (UniProt P49674)
[21] = target: PDGFRB (human) (UniProt P09619)
[22] = target: EPHB3 (human) (UniProt P54753)
[23] = target: EPHA7 (human) (UniProt Q15375)
[24] = target: SRPK2 (human) (UniProt P78362)
[25] = target: PTK6 (human) (UniProt Q13882)
[26] = target: TEK (human) (UniProt Q02763)
[27] = target: MAP4K1 (human) (UniProt Q92918)
[28] = target: TYK2 JH2 pseudokinase (human) (UniProt P29597)
[29] = target: RIOK2 (human) (UniProt Q9BVS4)
[30] = target: SRPK3 (human) (UniProt Q9UPE1)
[31] = target: MAP4K2 (human) (UniProt Q12851)
Chain of MAP4K2 (human) (Q12851 whole entry, looked up): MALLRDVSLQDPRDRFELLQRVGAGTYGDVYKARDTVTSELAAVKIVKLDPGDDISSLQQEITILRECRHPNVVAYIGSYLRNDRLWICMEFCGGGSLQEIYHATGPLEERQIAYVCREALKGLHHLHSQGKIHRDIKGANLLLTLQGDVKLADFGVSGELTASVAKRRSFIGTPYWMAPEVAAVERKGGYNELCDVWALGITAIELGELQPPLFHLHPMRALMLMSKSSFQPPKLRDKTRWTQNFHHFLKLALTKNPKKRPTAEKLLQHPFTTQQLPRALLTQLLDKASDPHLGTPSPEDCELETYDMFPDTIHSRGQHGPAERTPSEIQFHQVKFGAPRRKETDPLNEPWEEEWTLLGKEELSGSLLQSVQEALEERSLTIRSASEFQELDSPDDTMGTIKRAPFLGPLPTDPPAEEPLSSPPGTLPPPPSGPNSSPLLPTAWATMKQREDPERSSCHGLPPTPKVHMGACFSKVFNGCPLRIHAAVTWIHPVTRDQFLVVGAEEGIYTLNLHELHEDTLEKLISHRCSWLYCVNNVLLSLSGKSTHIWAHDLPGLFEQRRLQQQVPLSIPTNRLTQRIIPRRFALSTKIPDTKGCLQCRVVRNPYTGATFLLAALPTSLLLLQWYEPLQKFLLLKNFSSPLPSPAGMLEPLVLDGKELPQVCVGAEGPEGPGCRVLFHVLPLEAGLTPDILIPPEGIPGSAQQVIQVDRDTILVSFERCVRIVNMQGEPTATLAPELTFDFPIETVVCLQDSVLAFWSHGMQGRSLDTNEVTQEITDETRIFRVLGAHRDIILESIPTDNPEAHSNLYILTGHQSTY

Chain of CSNK1E (human) (P49674 whole entry, looked up): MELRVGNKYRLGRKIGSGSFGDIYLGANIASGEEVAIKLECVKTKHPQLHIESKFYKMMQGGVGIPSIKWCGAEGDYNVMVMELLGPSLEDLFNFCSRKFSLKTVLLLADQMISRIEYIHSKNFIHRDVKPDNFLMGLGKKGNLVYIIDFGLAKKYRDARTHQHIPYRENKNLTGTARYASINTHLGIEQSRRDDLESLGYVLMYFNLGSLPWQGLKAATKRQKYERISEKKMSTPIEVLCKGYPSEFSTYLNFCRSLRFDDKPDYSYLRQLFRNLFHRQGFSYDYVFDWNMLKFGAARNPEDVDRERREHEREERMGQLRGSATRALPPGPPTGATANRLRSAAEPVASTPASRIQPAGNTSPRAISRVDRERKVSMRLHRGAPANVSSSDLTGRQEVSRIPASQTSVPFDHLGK
Chain of ACVR2A (human) (P27037 whole entry, looked up): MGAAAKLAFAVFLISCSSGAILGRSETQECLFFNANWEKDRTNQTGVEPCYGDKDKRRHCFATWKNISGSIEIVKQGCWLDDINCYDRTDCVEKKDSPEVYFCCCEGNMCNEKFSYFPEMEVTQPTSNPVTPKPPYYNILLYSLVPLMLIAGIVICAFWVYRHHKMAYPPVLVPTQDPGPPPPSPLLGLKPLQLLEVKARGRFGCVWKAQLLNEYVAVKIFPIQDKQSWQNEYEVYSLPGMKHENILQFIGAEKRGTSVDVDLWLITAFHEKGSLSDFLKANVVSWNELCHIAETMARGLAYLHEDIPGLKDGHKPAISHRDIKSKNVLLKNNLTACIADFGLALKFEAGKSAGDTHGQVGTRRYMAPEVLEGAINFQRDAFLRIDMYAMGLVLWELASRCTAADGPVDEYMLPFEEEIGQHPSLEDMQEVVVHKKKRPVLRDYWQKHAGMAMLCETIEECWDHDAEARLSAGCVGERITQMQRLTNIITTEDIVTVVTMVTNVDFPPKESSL
Chain of EPHA4 (human) (P54764 whole entry, looked up): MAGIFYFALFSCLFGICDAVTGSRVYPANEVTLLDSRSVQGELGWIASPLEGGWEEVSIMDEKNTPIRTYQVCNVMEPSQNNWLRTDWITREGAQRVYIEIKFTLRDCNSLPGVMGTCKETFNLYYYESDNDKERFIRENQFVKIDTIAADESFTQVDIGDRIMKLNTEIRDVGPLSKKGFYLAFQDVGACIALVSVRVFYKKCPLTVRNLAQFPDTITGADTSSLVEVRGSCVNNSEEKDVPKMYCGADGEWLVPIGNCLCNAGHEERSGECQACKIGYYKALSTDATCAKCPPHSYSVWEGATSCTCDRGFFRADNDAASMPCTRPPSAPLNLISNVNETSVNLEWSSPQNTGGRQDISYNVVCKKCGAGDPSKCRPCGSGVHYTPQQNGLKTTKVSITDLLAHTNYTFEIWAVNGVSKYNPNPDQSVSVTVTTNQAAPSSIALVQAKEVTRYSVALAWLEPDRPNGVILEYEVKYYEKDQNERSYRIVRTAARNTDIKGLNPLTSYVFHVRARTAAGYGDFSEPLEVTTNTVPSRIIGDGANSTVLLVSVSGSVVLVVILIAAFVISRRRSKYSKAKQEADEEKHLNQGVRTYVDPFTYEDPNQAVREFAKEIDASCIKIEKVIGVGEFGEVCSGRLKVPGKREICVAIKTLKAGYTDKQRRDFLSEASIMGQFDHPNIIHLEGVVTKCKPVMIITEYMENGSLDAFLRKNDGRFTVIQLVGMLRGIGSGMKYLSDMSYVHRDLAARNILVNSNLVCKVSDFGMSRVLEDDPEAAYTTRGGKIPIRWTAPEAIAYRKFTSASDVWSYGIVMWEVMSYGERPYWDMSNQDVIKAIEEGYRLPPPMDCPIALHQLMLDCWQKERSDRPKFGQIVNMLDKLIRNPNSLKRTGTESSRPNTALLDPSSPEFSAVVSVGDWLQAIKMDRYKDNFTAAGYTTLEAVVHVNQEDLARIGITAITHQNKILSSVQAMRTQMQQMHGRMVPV
Chain of TYK2 JH2 pseudokinase (human) (P29597 whole entry, looked up): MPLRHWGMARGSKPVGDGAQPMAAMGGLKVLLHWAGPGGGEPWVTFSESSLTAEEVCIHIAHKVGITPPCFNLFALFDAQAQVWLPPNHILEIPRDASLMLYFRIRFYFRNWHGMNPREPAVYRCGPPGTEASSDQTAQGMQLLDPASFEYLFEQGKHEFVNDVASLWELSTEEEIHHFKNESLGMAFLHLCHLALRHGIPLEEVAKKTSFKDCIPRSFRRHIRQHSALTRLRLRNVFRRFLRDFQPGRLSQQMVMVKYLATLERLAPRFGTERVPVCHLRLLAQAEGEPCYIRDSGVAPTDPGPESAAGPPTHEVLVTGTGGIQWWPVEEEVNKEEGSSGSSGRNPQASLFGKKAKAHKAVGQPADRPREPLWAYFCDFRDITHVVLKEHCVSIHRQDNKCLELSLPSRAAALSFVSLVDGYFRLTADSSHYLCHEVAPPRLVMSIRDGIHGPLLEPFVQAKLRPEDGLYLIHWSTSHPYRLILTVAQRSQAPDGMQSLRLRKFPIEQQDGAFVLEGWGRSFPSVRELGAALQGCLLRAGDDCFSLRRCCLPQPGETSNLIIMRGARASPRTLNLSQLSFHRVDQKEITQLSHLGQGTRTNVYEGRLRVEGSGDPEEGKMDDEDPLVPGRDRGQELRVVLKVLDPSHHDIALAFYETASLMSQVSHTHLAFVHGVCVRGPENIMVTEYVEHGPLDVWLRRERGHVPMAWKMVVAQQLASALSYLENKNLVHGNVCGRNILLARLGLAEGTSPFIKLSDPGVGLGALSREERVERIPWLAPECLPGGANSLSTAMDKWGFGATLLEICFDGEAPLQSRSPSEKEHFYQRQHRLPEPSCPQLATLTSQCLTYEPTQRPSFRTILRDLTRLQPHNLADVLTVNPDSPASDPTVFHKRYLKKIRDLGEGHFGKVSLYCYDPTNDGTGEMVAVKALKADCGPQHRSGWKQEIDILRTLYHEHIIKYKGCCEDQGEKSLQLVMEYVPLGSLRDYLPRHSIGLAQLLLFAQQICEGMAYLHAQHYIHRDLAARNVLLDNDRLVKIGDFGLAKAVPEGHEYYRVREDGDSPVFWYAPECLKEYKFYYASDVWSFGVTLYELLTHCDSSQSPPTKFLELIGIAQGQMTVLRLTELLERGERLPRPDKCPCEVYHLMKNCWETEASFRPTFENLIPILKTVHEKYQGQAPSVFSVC
Chain of EPHB3 (human) (P54753 whole entry, looked up): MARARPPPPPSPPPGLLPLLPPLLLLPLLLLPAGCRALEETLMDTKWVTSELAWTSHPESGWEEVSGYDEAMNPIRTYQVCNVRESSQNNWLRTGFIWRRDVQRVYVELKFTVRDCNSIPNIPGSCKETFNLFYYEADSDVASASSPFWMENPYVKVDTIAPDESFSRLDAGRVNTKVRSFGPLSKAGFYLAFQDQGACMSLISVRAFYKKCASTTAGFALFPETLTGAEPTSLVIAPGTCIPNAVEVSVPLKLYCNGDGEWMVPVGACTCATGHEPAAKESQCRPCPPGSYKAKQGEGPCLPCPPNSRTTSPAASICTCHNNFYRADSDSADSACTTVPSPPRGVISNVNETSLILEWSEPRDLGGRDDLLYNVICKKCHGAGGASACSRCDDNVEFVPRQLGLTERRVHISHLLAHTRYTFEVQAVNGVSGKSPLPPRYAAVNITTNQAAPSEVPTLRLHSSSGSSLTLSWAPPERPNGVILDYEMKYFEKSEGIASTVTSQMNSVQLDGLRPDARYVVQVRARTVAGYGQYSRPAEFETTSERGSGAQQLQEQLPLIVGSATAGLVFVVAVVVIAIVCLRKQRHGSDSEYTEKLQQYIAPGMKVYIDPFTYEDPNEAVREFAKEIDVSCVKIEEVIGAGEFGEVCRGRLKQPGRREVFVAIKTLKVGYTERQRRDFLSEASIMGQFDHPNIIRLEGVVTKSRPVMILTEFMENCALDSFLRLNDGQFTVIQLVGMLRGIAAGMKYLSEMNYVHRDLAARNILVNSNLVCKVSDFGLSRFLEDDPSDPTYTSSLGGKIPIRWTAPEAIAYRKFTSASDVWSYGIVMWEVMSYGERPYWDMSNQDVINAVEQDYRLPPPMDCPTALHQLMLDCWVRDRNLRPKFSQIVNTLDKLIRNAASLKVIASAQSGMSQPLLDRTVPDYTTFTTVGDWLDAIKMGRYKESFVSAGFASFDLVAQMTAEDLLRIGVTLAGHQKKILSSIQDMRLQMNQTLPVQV

Structure (SMILES) | kinase still bound, per cent of control [1] | kinase still bound, per cent of control [2] | kinase still bound, per cent of control [3] | kinase still bound, per cent of control [4] | kinase still bound, per cent of control [5] | kinase still bound, per cent of control [6] | kinase still bound, per cent of control [7] | kinase still bound, per cent of control [8] | kinase still bound, per cent of control [9] | kinase still bound, per cent of control [10] | kinase still bound, per cent of control [11] | kinase still bound, per cent of control [12] | kinase still bound, per cent of control [13] | kinase still bound, per cent of control [15] | kinase still bound, per cent of control [16] | kinase still bound, per cent of control [17] | kinase still bound, per cent of control [18] | kinase still bound, per cent of control [19] | kinase still bound, per cent of control [20] | kinase still bound, per cent of control [21] | also measured
CCN(CC)CCCCNc1ncc2cc(-c3cc(OC)cc(OC)c3)c(NC(=O)NC(C)(C)C)nc2n1 | 100% | 100% | 100% | 100% | 100% | 100% | 100% | 100% | 100% | 100% | 100% | 100% | 100% | 100% | 100% | 100% | 100% | 100% | 100% | 38% | kinase still bound, per cent of control [14]: 100%; kinase still bound, per cent of control [22]: 100%; kinase still bound, per cent of control [23]: 100%; kinase still bound, per cent of control [24]: 100%; kinase still bound, per cent of control [25]: 100%; kinase still bound, per cent of control [26]: 100%; kinase still bound, per cent of control [27]: 100%
Cc1n[nH]c2ccc(-c3cncc(OC[C@@H](N)Cc4c[nH]c5ccccc45)c3)cc12 | 100% | 0.8% | 100% | 100% | 13% | 100% | 100% | 100% | 100% | 0% | 100% | 1.8% | 100% | 1.8% | 100% | 0.05% | 100% | 100% | 0.05% | 28% | kinase still bound, per cent of control [28]: 100%; kinase still bound, per cent of control [29]: 6.2%; kinase still bound, per cent of control [30]: 0.95%; kinase still bound, per cent of control [31]: 8.8%; kinase still bound, per cent of control [22]: 100%; kinase still bound, per cent of control [23]: 100%; kinase still bound, per cent of control [24]: 22%; kinase still bound, per cent of control [25]: 100%; kinase still bound, per cent of control [26]: 100%; kinase still bound, per cent of control [27]: 23%
CNC(=O)c1ccc(Nc2cc(Nc3ccccc3S(=O)(=O)C(C)C)c3cc[nH]c3n2)nc1 | 100% | 10% | 0.4% | 100% | 33% | 100% | 5.2% | 0.75% | 100% | 8.8% | 0.7% | 100% | 0% | 11% | 8.1% | 4.7% | 100% | 9.4% | 29% | 8.4% | kinase still bound, per cent of control [28]: 0.95%; kinase still bound, per cent of control [29]: 13%; kinase still bound, per cent of control [30]: 12%; kinase still bound, per cent of control [14]: 0.55%; kinase still bound, per cent of control [31]: 11%; kinase still bound, per cent of control [22]: 100%; kinase still bound, per cent of control [23]: 1.7%; kinase still bound, per cent of control [24]: 24%; kinase still bound, per cent of control [25]: 25%; kinase still bound, per cent of control [26]: 1.8%; kinase still bound, per cent of control [27]: 7.9%
C=CC(=O)Nc1ccc(CN(C(=O)Nc2c(Cl)c(OC)cc(OC)c2Cl)c2cc(Nc3ccc(N4CCN(C)CC4)cc3)ncn2)cc1 | 100% | 100% | 100% | 100% | 100% | 100% | 100% | 100% | 100% | 100% | 100% | 100% | 100% | 100% | 5.6% | 100% | 100% | 9.1% | 100% | 0% | kinase still bound, per cent of control [28]: 100%; kinase still bound, per cent of control [29]: 100%; kinase still bound, per cent of control [30]: 100%; kinase still bound, per cent of control [14]: 0.1%; kinase still bound, per cent of control [31]: 100%; kinase still bound, per cent of control [22]: 100%; kinase still bound, per cent of control [23]: 100%; kinase still bound, per cent of control [24]: 100%; kinase still bound, per cent of control [25]: 100%; kinase still bound, per cent of control [26]: 0.95%; kinase still bound, per cent of control [27]: 16%
